Measured values as given in patent US20240287194A1, “Targeting Extracellular Matrix Proteins to Regulate NK Cell Function in Peripheral Tissues” (The General Hospital Corporation, priority 2021, published 2024).

Columns and labels:
[1] = test system: Ly49H^+ splenic cNK cells; assay: Splenic cNK cell co-culture with m157-MEF in the presence of ECM proteins (CD107a, IFNγ flow cytometry); assay type: cell-based, mice; details: for altering NK cell functions (CD107a, IFNγ): co-culture with m157-MEF
Experimental: (§1) Single-cell suspensions from all samples were prepared by straining through a 70 μm filter. 2.4G2 supernatant treated cells were stained in 1×PBS/2% FCS/5 mM EDTA with the appropriate surface antibodies (Table 2) for 30 minutes at 4° C., washed and analyzed by flow cytometry. For intracellular staining, cells were fixed and permeabilized using True-Nuclear Transcription Buffer set (Biolegend, catalog no. 424401) according to the manufacturer's protocol then incubated with appropriate antibodies (Table 2) for 60 min at RT, washed and analyzed by flow cytometry. For in vitro signaling experiments, following the specified time points, cells were fixed with an equal volume of pre-warmed 1×aldehyde based fixation buffer (Biolegend, catalog no. 420801) for 20 min at RT. Fixed cells were permeabilized by drop-wise addition of chilled methanol-based solution True-Phos Perm Buffer (Biolegend, catalog no. 425401) while mixed on a vortex. Cells were stored in-20° C. and dark for 1-3 days before washing them two times with ˜3 mL of 1×PBS/2% FCS/5 mM EDTA. Cells were subsequently stained with appropriate antibodies against surface markers and specific phosphorylated signaling proteins (Table 2) for 60 min at RT, washed and analyzed by flow cytometry. Cells were assayed on a BD LSRFortessa X-20 flow cytometer (BD Bioscience, Billerica, MA, USA) and data were analyzed using FlowJo software Version 10 (Tree Star, Ashlad, OR, USA). NK cells in WT non-reporting mice were identified as CD3^− NK1.1^+NKp46^+.
(§2) For in vitro experiments in the presence of ECM components, Collagen I (Rat tail, Sigma, catalog no. 08-115), collagen III (Human placenta, Sigma, catalog no. C4407), collagen IV (Mouse, Sigma, catalog no. C0543), Elastin (Mouse lung, Sigma, catalog no. E6402), Laminin (Mouse, Thermo Fisher, catalog no. 23017015) and Fibronectin (Rat plasma, Sigma, catalog no. F0635) were diluted in 1×PBS and coated at 20 μ ENREF 45 g/cm^2 in a 24 well tissue culture plate for 30 minutes at RT with gentle shaking followed by overnight at 4° C. Spleens from Ncr1^iCre, ROSA^mT-mG, WT or Lair1^−/− mice were harvested as described above. Then, 5×10^6 splenocytes resuspended in RPMI 10% FBS/1% P/S/20 mM Glutamine were mixed with 20 μg of respective ECM protein per well and were incubated at RT for 10 minutes. Splenocytes and ECM mix were plated onto the ECM-coated well and were incubated at 37° C./5% CO2 for 2 hours (short ECM exposure) or 17 hours (long ECM exposure). At the end of the incubation, 1×10^5 MEF (WT or m157) cells were added to each well to obtain a 50:1 splenocyte:MEF ratio. For cell signaling experiments, hydrogen peroxide (H2O2) at a final concentration of 2.5 mM or 1×10^5 MEF-m157 cells were added to each well except in “0 min” wells which were unstimulated and fixed immediately. Splenocytes were stimulated with 2.5 mM H2O2 for 2 min and 5 min or were co-cultured with MEF-m157 for 30 min and 60 min (signaling) or 7 hours (CD107a and IFN[…]) at 37° C./5% CO2. Splenocytes and MEF in co-culture were supplemented with mIL-12 (10 ng/mL, Biolegend, catalog no. 577002), mIL-15 (1 ng/mL, Shenandoah Biotechnology, catalog no. 200-07) and hIL-2 (Biolegend, catalog no. 589104; only long ECM exposure) as well as for CD107a/IFN experiments. 1 μL of anti-CD107a-BV421 (1D4B, Biolegend, catalog no. 121618), 1×Brefeldin A (Biolegend, catalog no. 420601) and 1×Monensin (Biolegend, catalog no. 420701) were added. Following the co-culture, cells were washed with 1×PBS/2% FCS/5 mM EDTA and the pellet was resuspended in 2.4G2 blocking solution before flow cytometry staining.

[2] = test system: B2m^−/− B16-F10 melanoma cells; assay: Subcutaneous (S.C.) B2m−/− B16 melanoma model; assay type: in vivo, mice; details: for proportions of tumor infiltrating Tregs, macrophages and MDSCs: B2m−/− B16 melanoma at the endpoint; for NK cell infiltration of the tumor parenchyma: B2m−/− B16 melanoma, day 3 post-S.C. injection; for T cell recruitment into the B2m−/− B16 tumors: CD3+ T cells, day 3 post S.C. injection; for IFNγ expression of tumor NK cells / PD-1 expression of tumor NK cells / granzyme B expression of tumor NK cells: NK cells from B2m−/− B16 melanoma, day 19-21 post-S.C. injection; for survival / B2m−/− melanoma growth in the skin: S.C. B2m−/− B16 in WT mice, losartan 60 mg/kg or DHB 40 mg/kg I.P. every day; for B2m−/− melanoma growth in the skin: control IgG vs anti-NK1.1
Experimental: All tumor experiments were performed in eight to twelve-week-old C57BL/6 female WT or Ncr1^iCre ROSA^mT-mG mice. For the S.C. tumor model, 2.5×10^5 B16-F10 WT or B2m^−/− cells were subcutaneously injected into the shaved flanks of mice. Tumor growth was measured every other day using a digital caliper starting from day seven. Tumor volume was calculated as follows: […]
To inhibit collagen deposition in and around the tumor, mice were administered with 60 mg/kg of Losartan Potassium (Fisher Scientific, catalog no. L02325G) or 40 mg/kg of 3,4-dihydroxybenzoic acid (DHB) (Sigma-Aldrich, catalog no. 37580) in 100 μL of sterile 1×PBS while the control mice were administered with the equivalent volume of sterile 1×PBS. These drugs were injected I.P. every day for the duration of the study starting the day of tumor inoculation.
For the collagenase/hyaluronidase experiment, 2.5×10^5 B16-F10 B2m^−/− cells were resuspended in 1×collagenase and hyaluronidase mix (Stemcell, catalog no. 07912) and were subcutaneously injected into the shaved flanks of mice. To deplete collagen within the tumor, mice were administered with 1×collagenase and hyaluronidase mix (Stemcell, catalog no. 07912) in 100 μL of sterile 1×PBS while control mice were administered with the equivalent volume of sterile 1×sPBS. These enzymes were injected via intratumoral (I.T.) route starting on the day of tumor inoculation (day 0), day 1, day 2, day 3, day 4 and then every other day (day 6, 8, 10, etc.) until the end of the study. Except for day 3 tumor harvest, mice were euthanized when a tumor reached 2 cm in diameter in accordance with IACUC protocols. For early time point tumor analysis, specific Ncr1^iCre, ROSA^mT-mG mice from PBS, Losartan and DHB group were euthanized on day 3 post tumor inoculation, the implanted tumor harvested and fixed in pre-chilled 95% ethanol overnight at 4° C. before subjecting them to subsequent processing.
Terminal subcutaneous tumors were excised with the skin and weighed before cutting in half. One half was placed in appropriate fixative while the other half was separated from the skin and chopped with scissors into ˜1 mm pieces. These were transferred to a 15 mL tube with 10 mL digest buffer (RPMI 1640 (Life Technologies, catalog no. 21870076), 200 U/mL Collagenase IV (Worthington Biochemical, Lakewood, NJ, USA)) and incubated for 2 hours at 37° C. with shaking. Following incubation, digested tumor was poured onto a […] strainer placed in a 50 mL tube. The 15 mL tube was rinsed with ˜3 mL of 1×PBS/2% FCS/5 mM EDTA and added to the digested sample. The tumor was mashed with a plunger through the […] strainer which was then rinsed ˜3 times with a small volume of 1×PBS/2% FCS/5 mM EDTA. The tumor-infiltrating CD45^+ immune cells were isolated by magnetic-based positive selection using CD45 microbeads (Miltenyi Biotec, catalog no. 130-052-301) according to the manufacturer's protocol. The stained cells were passed through the LS columns (Miltenyi Biotec, catalog no. 130-042-401) placed between magnets for isolation of immune cells. The isolated CD45^+ cells were centrifuged at 300 g for 5 minutes at 4° C. and resuspended in 2.4G2 blocking solution before flow cytometry staining.
Mice were I.P. injected with 500 μg/mouse of IgG isotype control (Southern Biotech, Birmingham, AL, USA, catalog no. 0107-01) or depleting anti-NK1.1 antibody (clone PK136, BioXcell, West Lebanon, NH, USA, catalog no. BE0036) two days before tumor cell injection and 250 μg/mouse every other day starting the day of the tumor cell injection. For depletion of NK or T cells (anti-CD4 antibody, clone GK1.5, BioXcell; anti-CD8a antibody, clone YTS 169.4, BioXcell) in a skin transplant setting, 500 μg/mouse of each depleting antibody were injected the day of the transplant and 250 μg at days indicated in FIG. S5E. […]

[3] = test system: splenic cNK cells; assay: Phospho-signaling in splenic cNK cells stimulated with H2O2 in the presence of ECM proteins; assay type: cell-based, mice
Experimental: as §1, §2

fibronectin: Fibronectin (Rat plasma, Sigma), epidermal basement membrane protein
altering NK cell functions (CD107a, IFNγ) ([1]; 9 and 24 hours): played a minor role

laminin: Laminin (Mouse, Thermo Fisher), epidermal basement membrane protein
altering NK cell functions (CD107a, IFNγ) ([1]; 9 and 24 hours): played a minor role

collagen IV: collagen IV (Mouse, Sigma), epidermal basement membrane protein
altering NK cell functions (CD107a, IFNγ) ([1]; 9 and 24 hours): played a minor role

CCCCc1nc(Cl)c(CO)n1Cc1ccc(-c2ccccc2-c2nn[nH]n2)cc1 [losartan, Losartan Potassium]
proportions of tumor infiltrating Tregs, macrophages and MDSCs [2]: remained unaltered or increased
NK cell infiltration of the tumor parenchyma [2]: highly infiltrated the tumor parenchyma
T cell recruitment into the B2m−/− B16 tumors [2]: did not induce T cell recruitment
IFNγ expression of tumor NK cells [2]: markedly elevated expression
PD-1 expression of tumor NK cells [2]: markedly elevated expression
granzyme B expression of tumor NK cells [2]: markedly elevated expression
survival [2]: significant survival benefit
B2m−/− melanoma growth in the skin [2]: protected the mice from B2m^−/− melanoma growth in the skin in an NK cell-dependent manner

O=C(O)c1ccc(O)c(O)c1 [DHB, 3,4-dihydroxybenzoic acid]
proportions of tumor infiltrating Tregs, macrophages and MDSCs [2]: remained unaltered or increased
NK cell infiltration of the tumor parenchyma [2]: highly infiltrated the tumor parenchyma
T cell recruitment into the B2m−/− B16 tumors [2]: did not induce T cell recruitment
IFNγ expression of tumor NK cells [2]: markedly elevated expression
PD-1 expression of tumor NK cells [2]: markedly elevated expression
granzyme B expression of tumor NK cells [2]: markedly elevated expression
survival [2]: significant survival benefit
B2m−/− melanoma growth in the skin [2]: protected the mice from B2m^−/− melanoma growth in the skin in an NK cell-dependent manner

B1: elastin: Elastin (Mouse lung, Sigma), dermal ECM protein (protein, UniProt P54320 28-860, looked up)
Elastin: GGVPGAVPGGLPGGVPGGVYYPGAGIGGLGGGGGALGPGGKPPKPGAGLLGTFGAGPGGLGGAGPGAGLGAFPAGTFPGAGALVPGGAAGAAAAYKAAAKAGAGLGGVGGVPGGVGVGGVPGGVGVGGVPGGVGVGGVPGGVGGIGGIGGLGVSTGAVVPQVGAGIGAGGKPGKVPGVGLPGVYPGGVLPGTGARFPGVGVLPGVPTGTGVKAKAPGGGGAFAGIPGVGPFGGQQPGVPLGYPIKAPKLPGGYGLPYTNGKLPYGVAGAGGKAGYPTGTGVGSQAAAAAAKAAKYGAGGAGVLPGVGGGGIPGGAGAIPGIGGIAGAGTPAAAAAAKAAAKAAKYGAAGGLVPGGPGVRLPGAGIPGVGGIPGVGGIPGVGGPGIGGPGIVGGPGAVSPAAAAKAAAKAAKYGARGGVGIPTYGVGAGGFPGYGVGAGAGLGGASPAAAAAAAKAAKYGAGGAGALGGLVPGAVPGALPGAVPAVPGAGGVPGAGTPAAAAAAAAAKAAAKAGLGPGVGGVPGGVGVGGIPGGVGVGGVPGGVGPGGVTGIGAGPGGLGGAGSPAAAKSAAKAAAKAQYRAAAGLGAGVPGFGAGAGVPGFGAGAGVPGFGAGAGVPGFGAGAGVPGFGAGAVPGSLAASKAAKYGAAGGLGGPGGLGGPGGLGGPGGLGGAGVPGRVAGAAPPAAAAAAAKAAAKAAQYGLGGAGGLGAGGLGAGGLGAGGLGAGGLGAGGLGAGGLGAGGLGAGGGVSPAAAAKAAKYGAAGLGGVLGARPFPGGGVAARPGFGLSPIYPGGGAGGLGVGGKPPKPYGGALGALGYQGGGCFGKSCGRKRK
Ly49H+ cNK cell degranulation (CD107a) ([1]; 9 and 24 hours co-culture with m157-MEF, ECM coated 20 μg/cm2): potently blocked
IFNγ production by Ly49H+ cNK cells ([1]; exposed to m157-MEF, 9 and 24 hours): suppressed
pERK1/2 levels in NK cells ([3]; H2O2 2.5 mM, 2 and 5 min): markedly reduced
pPLCγ1 levels in NK cells ([3]; H2O2 2.5 mM, 2 and 5 min): markedly reduced
pSTAT3 in NK cells ([3]; baseline and 2- and 5-minute exposure to H2O2): increased pSTAT3 at baseline
pSTAT5 in NK cells ([3]; baseline and 2- and 5-minutes exposure to H2O2): highly induced
